Where two headings read alike, the source gives them in different places.
Tests used:
[1] = phase 1 first-in-human trial, food effect study (FES) PK; format: in vivo; conditions: for AUC(0-t) / Cmax / half-life / Tmax: 150 mg; for half-life: read-out: T1/2 (geometric mean) (converted)
Experimental: Anle138b was studied in a single-centre, double-blind, randomised, placebo-controlled single ascending dose (SAD) and multiple ascending dose (MAD) study in healthy subjects. Eligible participants were randomly assigned (1:1 for sentinel subjects and 1:5 for main group) to placebo or anle138b (dose ranging from 50 mg to 300 mg per day), respectively. In addition, the effect of food on the pharmacokinetics (PK) of anle138b in healthy subjects was examined at doses of 150 mg per day (FES, food effect study). Participants were randomized to treatment sequence (fed→fasted) or (fasted→fed). Treatment for the SAD, MAD and FES arms of the study was administered orally in hard gelatin capsules containing either 10 mg or 30 mg of anle138b with excipient (i.e., lauroyl polyoxyl-32 glycerides) or excipient only. The primary endpoints were safety and tolerability, the secondary endpoint was pharmacokinetics. Data from all randomized individuals were evaluated. [Clinicaltrials.gov-identifier: NCT04208152. EudraCT-number: 2019-004218-33]
This dose was administered either i) after a standard FDA-approved high-fat breakfast or ii) in the fasted state, i.e., fasted from all food and drink (except water) for a minimum of 8 h prior to dosing. In total, one cohort of 12 subjects was randomised in a 1:1 ratio to 2 treatment sequences (fed→fasted) or (fasted→fed). A minimum washout of at least 5 half-lives of anle138b between each dose was assured.
Secondary outcome measures were the oral PK of single (SAD) and multiple (MAD) ascending doses of anle138b in the fasted state as well as the effect of co-administration with food on the PK of anle138b. To this end PK blood samples were taken at day 1 (and for MAD day 7) pre-dose and at 0.5, 1, 1.5, 2, 3, 4, 6, 8, 10, 12, 16 and 20 h post-administration, at days 2 to 6 pre-dose only (MAD) and 24, 30, 36 and 48 h post final dose. Analysis of anle138b in plasma was done at Aptuit. Time point of last quantifiable data was seen to increase with an increase in dose as follows: SAD: from the 50 mg dose (subjects ranged between 8-24 h) to the 300 mg dose (subjects ranged between 36-48 h). MAD: from the 100 mg dose (subjects ranged between 8-36 h) to the 300 mg dose (subjects ranged between 20-48 h). In FES, subjects ranged between 24-48 h.
where μ=[…] is the intercept and β is the slope from the linear model. Using this model it is possible to estimate β (measure of dose proportionality) and obtain 90% confidence interval (CI) for β (Gough, 1995; Smith, 2000). The estimate of β together with its 90% CI (βI, βu) was used to quantify the degree of non-proportionality. In MAD, formal statistical analysis was performed on the PK parameters AUC0-tau and Cmax to assess dose accumulation. Log-transformed AUC0-tau and Cmax was subjected to a mixed-effects model with treatment (dose level), day (day 1 or 7) and treatment-by-day interaction as fixed effects and subject as a random effect. The adjusted means obtained from the model, including differences for each comparison of interest and the associated 90% CIs, was back-transformed on the log scale to obtain adjusted geometric means, adjusted geometric mean ratios (GMRs) and 90% CIs of the ratio. The GMRs and 90% CIs were provided for each treatment and overall, i.e., day 7/day 1. In the FES, formal statistical analysis was performed on the PK parameters Cmax, AUC0-last and AUC0-24 to assess the effects of food on anle138b. The PK parameters underwent a natural logarithmic transformation and were analysed using a mixed-effect model with terms for treatment (i.e., prandial state), period and sequence as fixed effects and subject nested within sequence as a random effect. Adjusted GMRs and 90% CIs for the adjusted GMRs for the comparison between fed and fasted states were provided where the ratios are defined as fed/fasted.

[2] = animal studies, cited from earlier work

With `Brc1cccc(-c2cc(-c3ccc4c(c3)OCO4)n[nH]2)c1` [anle138b, 3-(1,3-benzodioxol-5-yl)-5-(3-bromophenyl)-1H-pyrazole] the “effect of food on Cmax (in words)” value ([1]; 150 mg single dose, fed vs fasted) was “decreased by about half”, the AUC(0-t) ([1]; human, plasma, oral, 150 mg single dose, fasted, read-out: AUC0-24 range) was 433 to 2720 ng·h/mL and the Cmax ([1]; human, plasma, oral, 150 mg single dose, fasted, read-out: Cmax range) was 225 to 1420 ng/mL. The AUC(0-t) ([1]; human, plasma, oral, 150 mg single dose, fed, read-out: AUC0-24 range) was 378 to 1920 ng·h/mL, the Cmax ([1]; human, plasma, oral, 150 mg single dose, fed, read-out: Cmax range) was 110 to 479 ng/mL and the bioavailability ([1]; human, plasma, oral, 150 mg single dose, 90% CI: 61%, 84%, read-out: dose bioavailable in the fed state compared to the fasted state) was roughly 74%. For the same compound, the AUC(0-t) ([1]; human, plasma, po, healthy volunteers, single oral 150 mg, fasted, read-out: AUC(0-24) (geometric mean)) was roughly 896 ng·h/mL, the AUC(0-t) ([1]; human, plasma, po, healthy volunteers, single oral 150 mg, fasted, read-out: AUC(0-last) (geometric mean)) was 888 ng·h/mL and the Cmax ([1]; human, plasma, po, healthy volunteers, single oral 150 mg, fasted, read-out: Cmax (geometric mean)) was roughly 442 ng/mL. It also gave a half-life ([1]; human, plasma, po, healthy volunteers, single oral 150 mg, fasted) of 11.3 h, a Tmax ([1]; human, plasma, po, healthy volunteers, single oral 150 mg, fasted, read-out: Tmax (median)) of 1.25 h and a Tmax ([1]; human, plasma, po, healthy volunteers, single oral 150 mg, fasted, read-out: Tmax (range)) of 1 to 2 h. It also gave a Tmax ([1]; human, plasma, po, healthy volunteers, single oral 150 mg, fed (high-fat breakfast), read-out: Tmax (median)) of 3 h, a Tmax ([1]; human, plasma, po, healthy volunteers, single oral 150 mg, fed (high-fat breakfast), read-out: Tmax (range)) of 1.5 to 3 h and an AUC(0-t) ([1]; human, plasma, po, healthy volunteers, single oral 150 mg, fed, read-out: AUC(0-24) (geometric mean)) of roughly 641 ng·h/mL. It also gave an AUC(0-t) ([1]; human, plasma, po, healthy volunteers, single oral 150 mg, fed, read-out: AUC(0-last) (geometric mean)) of 668 ng·h/mL, a Cmax ([1]; human, plasma, po, healthy volunteers, single oral 150 mg, fed, read-out: Cmax (geometric mean)) of roughly 196 ng/mL and a half-life ([1]; human, plasma, po, healthy volunteers, single oral 150 mg, fed) of 15.2 h. The “ratio of fasted AUC(0-24) to fed AUC(0-24)” value ([1]; single dose, healthy subject) was “less than 1.5”, the “oral bioavailability (in words)” value [2] was “high oral bioavailability” and the “levels in the brain relative to plasma” value ([2]; oral) was 5 fold.
